Measured values as given in paper PMC4207771, “Identification and Characterization of Novel Renal Sensory Receptors” (PLoS ONE, 2014).
Where two headings read alike, the source gives them in different places.

Assays:
Olfr691 = target: T1, Olfr691 (Mus musculus, UniProt Q8VGW5); test: dual-luciferase (cAMP/CREB reporter) ligand screen, Olfr691 in HEK293T cells; type: cell-based; settings: for Relative response (% of 4-pentenoate response) at 500 µM: HEK-293T, 4 h, 0.5 mM ligand, normalized to the response of Olfr691 to the strongest ligand; for Olfr691 response (in words): luciferase assay, co-expressed with RTP1S
T1 construct: Lucy (N); expressed in transfected cells; host or cells: HEK293T, co-transfected with RTP1S
T1 sequence (Q8VGW5 1-322): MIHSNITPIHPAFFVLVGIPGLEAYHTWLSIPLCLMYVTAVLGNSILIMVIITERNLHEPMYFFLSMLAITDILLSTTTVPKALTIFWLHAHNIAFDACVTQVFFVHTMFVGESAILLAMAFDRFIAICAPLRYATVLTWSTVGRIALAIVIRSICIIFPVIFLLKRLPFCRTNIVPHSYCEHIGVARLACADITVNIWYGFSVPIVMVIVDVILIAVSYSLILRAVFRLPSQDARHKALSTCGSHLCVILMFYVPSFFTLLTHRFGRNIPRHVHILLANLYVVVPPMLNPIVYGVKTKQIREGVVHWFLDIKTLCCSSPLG

Olfr545 = test: dual-luciferase (cAMP/CREB reporter) ligand screen, Olfr545 in HEK293T cells; type: cell-based, mouse; design: key to Olfr545 response in dual-luciferase assay: ‘+’ or ‘–‘ in each column indicates if the olfactory receptor responded or had no effect to that specific chemical; -: ‘+’ or ‘–‘ in each column indicates if the olfactory receptor responded or had no effect to that specific chemical
Olfr99 = test: dual-luciferase (cAMP/CREB reporter) ligand screen, Olfr99 in HEK293T cells; type: cell-based, mouse; design: key: ‘+’ or ‘–‘ in each column indicates if the olfactory receptor responded or had no effect to that specific chemical; -: ‘+’ or ‘–‘ in each column indicates if the olfactory receptor responded or had no effect to that specific chemical
Olfr31 = target: T2, Olfr31 (Mus musculus, UniProt Q3KPA7); test: dual-luciferase (cAMP/CREB reporter) ligand screen, Olfr31 in HEK293T cells; type: cell-based
T2 construct: expressed in transfected cells; host or cells: HEK293T, co-transfected with RTP1S
T2 sequence (Q3KPA7 1-317): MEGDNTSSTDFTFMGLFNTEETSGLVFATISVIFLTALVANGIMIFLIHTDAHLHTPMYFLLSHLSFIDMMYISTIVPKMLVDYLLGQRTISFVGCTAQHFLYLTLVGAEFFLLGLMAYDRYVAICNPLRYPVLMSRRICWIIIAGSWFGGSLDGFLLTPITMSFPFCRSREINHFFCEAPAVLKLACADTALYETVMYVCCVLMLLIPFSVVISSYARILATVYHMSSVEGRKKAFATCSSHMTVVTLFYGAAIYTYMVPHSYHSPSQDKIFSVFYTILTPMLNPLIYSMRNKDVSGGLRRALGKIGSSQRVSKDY

Olfr693 = test: dual-luciferase (cAMP/CREB reporter) ligand screen, Olfr693 in HEK293T cells; type: cell-based, mouse; design: key: ‘+’ or ‘–‘ in each column indicates if the olfactory receptor responded or had no effect to that specific chemical; -: ‘+’ or ‘–‘ in each column indicates if the olfactory receptor responded or had no effect to that specific chemical
[1] = chemicals tested individually, screened at 500uM (* also at 100uM)

Row | Olfr691 response in dual-luciferase assay (Olfr691; [1]) | Olfr31 response in dual-luciferase assay (Olfr31; [1]) | Relative response (% of 4-pentenoate response) at 500 µM (Olfr691) [%] | EC50 (Olfr691; Olfr691 co-expressed with RTP1S in HEK293T cells, 10 µM to 7.5 mM) [µM] | Olfr691 response (in words) (Olfr691; listed as 4-Pentenoate) | SMILES | Olfr545 response in dual-luciferase assay (Olfr545; [1]) | Olfr99 response in dual-luciferase assay (Olfr99; [1]) | Olfr693 response in dual-luciferase assay (Olfr693; [1]) | Olfr691 response (in words) (Olfr691; listed as 4-pentenoate) | Olfr691 response in dual-luciferase assay (Olfr691) | Olfr545 response in dual-luciferase assay (Olfr545) | Olfr99 response in dual-luciferase assay (Olfr99) | Olfr31 response in dual-luciferase assay (Olfr31) | Olfr693 response in dual-luciferase assay (Olfr693)
1 | - | - |  |  |  | CCCCCC(=O)CC [3-octanone] | - | - | - |  |  |  |  |  | 
2 | + | - | 100 ± 10.6 | 901 | induced the strongest response | C=CCCC(=O)O [4-pentenoic acid] | - | - | - | induced the strongest cAMP responses at all doses |  |  |  |  | 
3 | - | - |  |  |  | CC(C)(C)C1CCC(O)CC1 (stereo not shown) [4-tert-butylcyclohexanol] | - | - | - |  |  |  |  |  | 
4 | - | - |  |  |  | O=C1CCCCCCCCCCCCCCCO1 [16-hexadecanolide] | - | - | - |  |  |  |  |  | 
5 | - | - |  |  |  | C=C(C)[C@@H]1CC[C@@H](C)C(=O)C1 [(+)Dihydrocarvone] | - | - | - |  |  |  |  |  | 
6 | - | - |  |  |  | COc1ccccc1 [Anisole] | - | - | - |  |  |  |  |  | 
7 | - | - |  |  |  | CC12CCC(CC1=O)C2(C)C (stereo not shown) [Camphor] | - | - | - |  |  |  |  |  | 
8 | - | - |  |  |  | C=C(C)C1CC=C(C)C(=O)C1 (stereo not shown) [Carvone] | - | - | - |  |  |  |  |  | 
9 | - | - |  |  |  | O=C(O)C1CCCCC1 [Cyclohexanecarboxylic acid] | - | - | - |  |  |  |  |  | 
10 | - | - |  |  |  | CC(C)=CCC/C(C)=C/CO [Geraniol] | - | - | - |  |  |  |  |  | 
11 | - | - |  |  |  | CC(C)C=O [Isobutyraldehyde] | - | - | - |  |  |  |  |  | 
12 | - | - |  |  |  | CC(C)(O)CCCC1=CCC(C=O)CC1 (stereo not shown) [Lyral] | - | - | - |  |  |  |  |  | 
13 | - | - |  |  |  | O=C(O)CC(=O)O [Malonate] | - | - | - |  |  |  |  |  | 
14 | - | - |  |  |  | O=C(O)C(=O)O [Oxalate] | - | - | - |  |  |  |  |  | 
15 | - | - |  |  |  | O=C(O)CCC(=O)O [Succinate] | - | - | - |  |  |  |  |  | 

The next lines start with the compound.

Row | SMILES | Olfr691 response in dual-luciferase assay (Olfr691; [1]) | Olfr31 response in dual-luciferase assay (Olfr31; [1]) | Relative response (% of 4-pentenoate response) at 500 µM (Olfr691) [%] | EC50 (Olfr691; Olfr691 co-expressed with RTP1S in HEK293T cells, 10 µM to 7.5 mM) [µM] | Olfr691 response (in words) (Olfr691; listed as 4-Pentenoate) | Olfr545 response in dual-luciferase assay (Olfr545; [1]) | Olfr99 response in dual-luciferase assay (Olfr99; [1]) | Olfr693 response in dual-luciferase assay (Olfr693; [1]) | Olfr691 response (in words) (Olfr691; listed as 4-pentenoate) | Olfr691 response in dual-luciferase assay (Olfr691) | Olfr545 response in dual-luciferase assay (Olfr545) | Olfr99 response in dual-luciferase assay (Olfr99) | Olfr31 response in dual-luciferase assay (Olfr31) | Olfr693 response in dual-luciferase assay (Olfr693)
16 | Cc1ccc(C)s1 [2,5-Dimethylthiophene] | - | - |  |  |  | - | - | - |  |  |  |  |  | 
17 | Cc1cncc(C)n1 [2,6-Dimethylpyrazine] | - | - |  |  |  | - | - | - |  |  |  |  |  | 
18 | CCCCCC(C)O (stereo not shown) [2-Heptanol] | - | - |  |  |  | - | - | - |  |  |  |  |  | 
19 | CCCC1CCOC(C)S1 (stereo not shown) [2-Methyl-4-propyl-1,3-oxathiane] | - | - |  |  |  | - | - | - |  |  |  |  |  | 
20 | O=C1Cc2ccccc2O1 [2-cumaranon] | - | - |  |  |  | - | - | - |  |  |  |  |  | 
21 | CCCCC(CC)C(=O)O (stereo not shown) [2-ethylhexanoate] | + | - | 76 ± 3.6 |  |  | - | - | - |  |  |  |  |  | 
22 | CCCCCC(C)=O [2-heptanone] | - | - |  |  |  | - | - | - |  |  |  |  |  | 
23 | Cc1ccco1 [2-methylfuran] | - | - |  |  |  | - | - | - |  |  |  |  |  | 
24 | CC(C)CCO [3-methyl-1-butanol] | - | - |  |  |  | - | - | - |  |  |  |  |  | 
25 | C=C[C@H](O)CCCCC [(R)-1-Octen-3-ol] | - | - |  |  |  | - | - | - |  |  |  |  |  | 
26 | CCCCCOC(=O)CCCCC [Amylhexanoate] | - | - |  |  |  | - | - | - |  |  |  |  |  | 
27 | C[C@H](CCC(=O)O)[C@H]1CC[C@H]2[C@@H]3CC[C@@H]4C[C@H](O)CC[C@]4(C)[C@H]3C[C@H](O)[C@]12C [Deoxyxholic acid] | - | - |  |  |  | - | - | - |  |  |  |  |  | 
28 | C=CC(C)(CCC=C(C)C)OC(C)=O (stereo not shown) [Linalyl acetate] | - | - |  |  |  | - | - | - |  |  |  |  |  | 
29 | CC(=O)C=O [Pyruvaldehyde] | - | - |  |  |  | - | - | - |  |  |  |  |  | 
30 | [Na+].[Na+].[S-2] [Sodium Sulfide] |  |  |  |  |  |  |  |  |  | - | - | - | - | -
31 | C[N+](C)(C)[O-] [Trimethylamine N-oxide] | - | - |  |  |  | - | - | - |  |  |  |  |  | 
